Measured values taken from patent US20220184037A1, “PHARMACEUTICAL AGENTS TARGETING CANCER STEM CELLS” (THE JOHNS HOPKINS UNIVERSITY, priority 2020, published 2022).

Tests used:
[1] = system: let-7 host gene MIRLET7BHG promoter; experiment: Bisulfite sequencing of let-7 host gene promoter methylation; assay type: cell-based, human; details: 10 μM celecoxib, 2 μM PGE2, or 5 μM 5-Aza-dC for 5 days
Protocol: Cell pellets were digested with 1% sodium dodecyl sulfate and 50 μg/mL proteinase K (Roche, Nutley, USA) at 48° C. overnight. Isolation of genomic DNA from cell lines was performed with the phenol-chloroform extraction protocol followed by ethanol precipitation. Bisulfite treatment was conducted using an EpiTect Bisulfite K ft (QIAGEN, Valencia, USA), and was subsequently amplified via PCR using primers as shown in the following table. PCR products were purified using the QIAquick Gel Extraction kit (Qiagen), and sequenced by Genewiz DNA sequencing service (Genewiz, South Plainfield, USA). The data were analyzed using the Sequence Scanner v1.0 software (Life technologies). A methylation frequency of ≥50% of total CpG sites within the amplified region was considered “methylation-positive”. For demethylation, cells ([…]) dissolved in 50% acetic acid or were mock-treated with phosphate buffered saline (PBS) including the same amount of acetic acid every 24 hours for 5 days. When combined with the histone deacetylase inhibitor TSA (Sigma), 300 nmol/L TSA was added to the medium for the final 24 hours.

[2] = Body weight of treated mice; assay type: in vivo; details: mice treated with inhibitors compared with control
Protocol: For therapeutic efficacy, mice were randomly assigned into experimental groups (five mice per group) when tumors reached a volume of […]. For celecoxib and/or VP treatment, celecoxib (5 mg/kg) was administered via intraperitoneal (i.p.) injection once a day (17), and VP (50 mg/kg) was administered via i.p. every other day (18). EP4 antagonist ONO-AE3-208 (10 mg/kg) was administered via i.p. once a day (19). Control was applied with same volume (10 μL per injection) of 10% dimethyl sulphoxide in 1% TWEEN 80 (Sigma-Aldrich). For GEM and CDDP (GC) treatment (i.p.), CDDP (6 mg/kg) was only applied after the first GEM (60 mg/kg) treatment on day 2, followed by three consecutive treatments of GEM on day 5, 8 and 11 (17). The next cycle was started on day 18, and the treatment was continued until tumor reached 2 cm in diameter. For erlotinib treatment, the mice were treated once a day, 6 days per week, by oral gavage with erlotinib (100 mg/kg) or control (PBS containing 0.5% methyl cellulose (Sigma-Aldrich) and 0.1% TWEEN 80) (20). Tumor size was measured at least every three days. Therapeutic efficacy was assessed using percentage change after treatment related to tumor size before treatment. […]

[3] = system: panel of miRNAs in BFTC 905 cells; experiment: Expression of a panel of miRNAs; assay type: cell-based, human; details: COX2 inhibitor
Protocol: (§1) Total RNA from cell lines was isolated using the RNeasy Plus Mini kit (Qiagen, Valencia, USA) according to the manufacturer's protocol. Total RNA extraction from bladder tissue was performed with the QIAzol Lysis Reagent (Qiagen) followed by phenol extraction and ethanol precipitation. Total RNA was eluted in DEPC treated water and stored at −80 ° C. Total RNA extraction from urine was performed using the MirVana miRNA Isolation Kit (Ambion, Austin, USA). These total RNA were converted to cDNA using the SuperScript III First-Strand Synthesis System (Life technologies, Carlsbad, USA), which was then used as a template for Q-RT-PCR. Q-RT-PCR was performed using the Fast SYBR Green Master Mix (Thermo Fisher Scientific, Waltham, USA) on a 7900HT Fast Real-Time PCR System (Life technologies) in triplicate. Micro RNA (miRNA) extraction was performed using the MirVana miRNA Isolation Kit, and was reverse transcribed using TaqMan reverse transcription kit (Applied Biosystems, Foster City, USA) and miRNA-specific RT primers provided with TaqMan microRNA assays (Applied Biosystems). Q-RT-PCR for miRNAs was performed using the TaqMan Universal PCR Master Mix according to the manufacturer's protocol. SDS software (Applied Biosystems) was used to determine cycle threshold (Ct) values. Expression level was quantified relative to β-actin for mRNA and RNU6B for miRNA using the 2-ΔΔCt method (12).

let-7 = let-7 expression by Q-RT-PCR; assay type: cell-based, human; details: parental or spheroid bladder cancer cells
Protocol: as §1
For demethylation, cells (1×10^6/T-75 flask) were treated with […] of the demethylating agent 5-Aza-dC (Sigma) dissolved in 50% acetic acid or were mock-treated with phosphate buffered saline (PBS) including the same amount of acetic acid every 24 hours for 5 days. When combined with the histone deacetylase inhibitor TSA (Sigma), 300 nmol/L TSA was added to the medium for the final 24 hours.

Cc1ccc(-c2cc(C(F)(F)F)nn2-c2ccc(S(N)(=O)=O)cc2)cc1 [celecoxib, Celecoxib]
promoter methylation of the let-7 host gene [1]: demethylated
body weight loss [2]: did not observe body weight loss
expression of several miRNAs [3]: induced expression
let-7 expression (let-7): restoration of let-7 expression
